# Reference: PubChem BioAssay (NCI)
# Values joined by “and” are separate entries in the source; they are usually repeats but may differ in a detail not shown here. Equal entries are not always repeated.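 Grown in 96-well plates, cells were treated for 48 hours with each compound at five concentrations. Insufficient inhibition: endpoint recorded as highest concentration tested. GI50: concentration for 50% inhibition of growth. The concentration for full growth arrest is given as TGI.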
# Assays:
# Assay in all cases: NCI tumour cell line growth inhibition, 48 h
# [1] = system: U251 CNS
# [2] = system: SNB-75 CNS
# [3] = system: SR leukemia
# [4] = system: HCC-2998 colon
# [5] = system: DLD-1 colon
# [6] = system: SN12C renal
# [7] = system: RXF-631 renal
# [8] = system: RXF 393 renal
# [9] = system: HCT-15 colon
# [10] = system: CAKI-1 renal
# [11] = system: MCF7 breast
# [12] = system: HOP-92 NSCLC
# [13] = system: SW-620 colon
# [14] = system: A498 renal
# [15] = system: HT29 colon
# [16] = system: SF-295 CNS
# [17] = system: PC-3 prostate
# [18] = system: SNB-19 CNS
# [19] = system: SK-MEL-28 melanoma
# [20] = system: SK-MEL-2 melanoma
# [21] = system: ACHN renal
smiles,measurement,setting,value
O=NN(CCCl)C(=O)NCCCl,GI50,[1],31.3 µM and 146 µM
same,TGI,[1],66.4 µM and 124 µM and > 306 µM
same,GI50,[2],195 µM
same,TGI,[2],127 µM and 128 µM and > 421 µM
same,GI50,[3],38.5 µM
same,TGI,[3],122 µM and 97.7 µM
same,GI50,[4],63.5 µM and 260 µM
same,TGI,[4],161 µM and 201 µM and > 370 µM
same,TGI,[5],176 µM
same,GI50,[6],240 µM
same,TGI,[6],185 µM and 151 µM and > 310 µM
same,TGI,[7],203 µM
same,GI50,[8],45.3 µM and > 238 µM
same,TGI,[8],86.6 µM and 149 µM and > 299 µM
same,GI50,[9],52.7 µM and 121 µM
same,TGI,[9],127 µM and 150 µM and > 267 µM
same,GI50,[10],44.9 µM and 186 µM
same,TGI,[10],103 µM and 150 µM and > 278 µM
same,GI50,[11],231 µM
same,TGI,[11],250 µM and 191 µM and > 312 µM
same,GI50,[12],193 µM
same,TGI,[12],151 µM and > 262 µM
same,GI50,[13],40.1 µM and 102 µM
same,TGI,[13],102 µM and 130 µM and 229 µM
same,GI50,[14],178 µM
same,TGI,[14],250 µM and 221 µM
same,GI50,[15],56.4 µM and 209 µM
same,TGI,[15],133 µM and 166 µM and > 361 µM
same,GI50,[16],36.3 µM and 123 µM
same,TGI,[16],250 µM and 126 µM and > 380 µM
same,GI50,[17],> 305 µM
same,TGI,[17],209 µM and > 390 µM
same,GI50,[18],61.1 µM and 169 µM
same,TGI,[18],250 µM and 168 µM and > 380 µM
same,TGI,[19],147 µM and 165 µM
same,TGI,[20],115 µM and 178 µM and > 500 µM
same,GI50,[21],64.4 µM
same,TGI,[21],170 µM and 172 µM
